Results published in the supplement of paper PMC9663587.

Assays:
Neratinib/HKI272 [1] = compound: T1, CCOc1cc2ncc(C#N)c(Nc3ccc(OCc4ccccn4)c(Cl)c3)c2cc1NC(=O)/C=C/CN(C)C [Neratinib/HKI272]; assay: increase in dead-cell fraction, 72 h; higher = more death;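 also: breast cancer cell lines in 384-well plates, stained with Hoechst plus LIVE/DEAD far red dye and imaged, cells above an LDR intensity threshold counted dead, Hoechst-negative corpses included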
[2] = compound: CCc1cnn2c(NCc3ccc[n+]([O-])c3)cc(N3CCCC[C@H]3CCO)nc12; assay: as above
LEE011/Ribociclib = compound: CN(C)C(=O)c1cc2cnc(Nc3ccc(N4CCNCC4)cn3)nc2n1C1CCCC1 [LEE011/Ribociclib]; assay: as above
[3] = compound: CCN1CCN(Cc2ccc(Nc3ncc(F)c(-c4cc(F)c5nc(C)n(C(C)C)c5c4)n3)nc2)CC1; assay: as above
[4] = compound: CC(=O)c1c(C)c2cnc(Nc3ccc(N4CCNCC4)cn3)nc2n(C2CCCC2)c1=O; assay: as above
Flavopiridol = compound: CN1CC[C@H](c2c(O)cc(O)c3c(=O)cc(-c4ccccc4Cl)oc23)[C@H](O)C1 [Flavopiridol]; assay: as above
THZ531 = compound: CN(C)C/C=C/C(=O)Nc1ccc(C(=O)N2CCC[C@@H](Nc3ncc(Cl)c(-c4c[nH]c5ccccc45)n3)C2)cc1 [THZ531]; assay: as above
THZ1 [5] = compound: T2, CN(C)C/C=C/C(=O)Nc1ccc(C(=O)Nc2cccc(Nc3ncc(Cl)c(-c4c[nH]c5ccccc45)n3)c2)cc1 [THZ1]; assay: as above
YKL-5-124 = compound: C=CC(=O)Nc1ccc(C(=O)Nc2[nH]nc3c2CN(C(=O)N[C@H](CN(C)C)c2ccccc2)C3(C)C)cc1 [YKL-5-124]; assay: as above
BSJ-03-123 = compound: CC(=O)c1c(C)c2cnc(Nc3ccc(N4CCN(CCOCCOCCOCCNC(=O)COc5cccc6c5C(=O)N(C5CCC(=O)NC5=O)C6=O)CC4)cn3)nc2n(C2CCCC2)c1=O [BSJ-03-123]; assay: as above
Neratinib/HKI272 [6] = compound: T1, Neratinib/HKI272; assay: GR value, 72 h; higher = faster growth (1 = untreated, <0 = killing);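 also: breast cancer and non-malignant breast epithelial lines, nine half-log doses, viable cells counted by Hoechst and LIVE/DEAD dye imaging versus time-zero plates and DMSO controls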
THZ1 [7] = compound: T2, THZ1; assay: as above

Cell Line: SUM185PE
- increase in dead-cell fraction (Neratinib/HKI272 [1]; 0.0003162 µM): 0.0036
- increase in dead-cell fraction (Neratinib/HKI272 [1]; 0.001 µM): -0.0035
- increase in dead-cell fraction (Neratinib/HKI272 [1]; 0.003162 µM): 0.0085
- increase in dead-cell fraction (Neratinib/HKI272 [1]; 0.01 µM): 0.0152
- increase in dead-cell fraction (Neratinib/HKI272 [1]; 0.03162 µM): 0.0297
- increase in dead-cell fraction (Neratinib/HKI272 [1]; 0.1 µM): 0.0255
- increase in dead-cell fraction (Neratinib/HKI272 [1]; 0.3162 µM): 0.0574
- increase in dead-cell fraction (Neratinib/HKI272 [1]; 1 µM): 0.068
- increase in dead-cell fraction (Neratinib/HKI272 [1]; 3.162 µM): 0.0933
- increase in dead-cell fraction ([2]; 0.0001 µM): -0.003
- increase in dead-cell fraction ([2]; 0.0003162 µM): 0.0089
- increase in dead-cell fraction ([2]; 0.001 µM): -0.0107
- increase in dead-cell fraction ([2]; 0.003162 µM): 0.0052
- increase in dead-cell fraction ([2]; 0.01 µM): 0.0137
- increase in dead-cell fraction ([2]; 0.03162 µM): 0.0687
- increase in dead-cell fraction ([2]; 0.1 µM): 0.0528
- increase in dead-cell fraction ([2]; 0.3162 µM): 0.0636
- increase in dead-cell fraction ([2]; 1 µM): 0.0458
- increase in dead-cell fraction (LEE011/Ribociclib; 0.001 µM): -0.0065
- increase in dead-cell fraction (LEE011/Ribociclib; 0.003162 µM): -0.0157
- increase in dead-cell fraction (LEE011/Ribociclib; 0.01 µM): -0.0081
- increase in dead-cell fraction (LEE011/Ribociclib; 0.03162 µM): -0.0009
- increase in dead-cell fraction (LEE011/Ribociclib; 0.1 µM): -0.0246
- increase in dead-cell fraction (LEE011/Ribociclib; 0.3162 µM): -0.0198
- increase in dead-cell fraction (LEE011/Ribociclib; 1 µM): -0.0191
- increase in dead-cell fraction (LEE011/Ribociclib; 3.162 µM): -0.0045
- increase in dead-cell fraction (LEE011/Ribociclib; 10 µM): 0.0009
- increase in dead-cell fraction ([3]; 0.001 µM): -0.0051
- increase in dead-cell fraction ([3]; 0.003162 µM): 0.0054
- increase in dead-cell fraction ([3]; 0.01 µM): 0.0159
- increase in dead-cell fraction ([3]; 0.03162 µM): 0.0271
- increase in dead-cell fraction ([3]; 0.1 µM): 0.0298
- increase in dead-cell fraction ([3]; 0.3162 µM): 0.0411
- increase in dead-cell fraction ([3]; 1 µM): 0.0307
- increase in dead-cell fraction ([3]; 3.162 µM): 0.0469
- increase in dead-cell fraction ([3]; 10 µM): 0.04
- increase in dead-cell fraction ([4]; 0.0003162 µM): 0.0082
- increase in dead-cell fraction ([4]; 0.001 µM): 0.0038
- increase in dead-cell fraction ([4]; 0.003162 µM): 0.0174
- increase in dead-cell fraction ([4]; 0.01 µM): -0.0044
- increase in dead-cell fraction ([4]; 0.03162 µM): -0.0035
- increase in dead-cell fraction ([4]; 0.1 µM): 0.0063
- increase in dead-cell fraction ([4]; 0.3162 µM): 0.02
- increase in dead-cell fraction ([4]; 1 µM): 0.0086
- increase in dead-cell fraction ([4]; 3.162 µM): 0.0015
- increase in dead-cell fraction (Flavopiridol; 0.0001 µM): 0.0138
- increase in dead-cell fraction (Flavopiridol; 0.0003162 µM): 0.0542
- increase in dead-cell fraction (Flavopiridol; 0.001 µM): 0.0183
- increase in dead-cell fraction (Flavopiridol; 0.003162 µM): -0.0158
- increase in dead-cell fraction (Flavopiridol; 0.01 µM): 0.0161
- increase in dead-cell fraction (Flavopiridol; 0.03162 µM): 0.0472
- increase in dead-cell fraction (Flavopiridol; 0.1 µM): 0.021
- increase in dead-cell fraction (Flavopiridol; 0.3162 µM): -0.002
- increase in dead-cell fraction (Flavopiridol; 1 µM): 0.117
- increase in dead-cell fraction (THZ531; 0.0001 µM): 0.0141
- increase in dead-cell fraction (THZ531; 0.0003162 µM): 0.0051
- increase in dead-cell fraction (THZ531; 0.001 µM): -0.0125
- increase in dead-cell fraction (THZ531; 0.003162 µM): -0.0076
- increase in dead-cell fraction (THZ531; 0.01 µM): -0.0143
- increase in dead-cell fraction (THZ531; 0.03162 µM): -0.0254
- increase in dead-cell fraction (THZ531; 0.1 µM): 0.0083
- increase in dead-cell fraction (THZ531; 0.3162 µM): 0.278
- increase in dead-cell fraction (THZ531; 1 µM): 0.139
- increase in dead-cell fraction (THZ1 [5]; 0.0001 µM): -0.0025
- increase in dead-cell fraction (THZ1 [5]; 0.0003162 µM): 0.0107
- increase in dead-cell fraction (THZ1 [5]; 0.001 µM): -0.0054
- increase in dead-cell fraction (THZ1 [5]; 0.003162 µM): 0.0295
- increase in dead-cell fraction (THZ1 [5]; 0.01 µM): 0.0559
- increase in dead-cell fraction (THZ1 [5]; 0.03162 µM): 0.216
- increase in dead-cell fraction (THZ1 [5]; 0.1 µM): 0.224
- increase in dead-cell fraction (THZ1 [5]; 0.3162 µM): 0.154
- increase in dead-cell fraction (THZ1 [5]; 1 µM): 0.183
- increase in dead-cell fraction (YKL-5-124; 0.001 µM): 0.0052
- increase in dead-cell fraction (YKL-5-124; 0.003162 µM): 0.0479
- increase in dead-cell fraction (YKL-5-124; 0.01 µM): 0.037
- increase in dead-cell fraction (YKL-5-124; 0.03162 µM): 0.0467
- increase in dead-cell fraction (YKL-5-124; 0.1 µM): 0.0495
- increase in dead-cell fraction (YKL-5-124; 0.3162 µM): 0.0156
- increase in dead-cell fraction (YKL-5-124; 1 µM): 0.067
- increase in dead-cell fraction (YKL-5-124; 3.162 µM): 0.121
- increase in dead-cell fraction (YKL-5-124; 10 µM): 0.148
- increase in dead-cell fraction (BSJ-03-123; 0.001 µM): -0.0024
- increase in dead-cell fraction (BSJ-03-123; 0.003162 µM): -0.0357
- increase in dead-cell fraction (BSJ-03-123; 0.01 µM): 0.0044
- increase in dead-cell fraction (BSJ-03-123; 0.03162 µM): 0.0319
- increase in dead-cell fraction (BSJ-03-123; 0.1 µM): 0.0144
- increase in dead-cell fraction (BSJ-03-123; 0.3162 µM): -0.0016
- increase in dead-cell fraction (BSJ-03-123; 1 µM): 0.0213
- increase in dead-cell fraction (BSJ-03-123; 3.162 µM): 0.0264
- increase in dead-cell fraction (BSJ-03-123; 10 µM): 0.0146
- GR value (Neratinib/HKI272 [6]; 0.0003162 µM): 0.996 GR
- GR value (Neratinib/HKI272 [6]; 0.001 µM): 1.05 GR
- GR value (Neratinib/HKI272 [6]; 0.003162 µM): 0.979 GR
- GR value (Neratinib/HKI272 [6]; 0.01 µM): 0.808 GR
- GR value (Neratinib/HKI272 [6]; 0.03162 µM): 0.839 GR
- GR value (Neratinib/HKI272 [6]; 0.1 µM): 0.681 GR
- GR value (Neratinib/HKI272 [6]; 0.3162 µM): 0.595 GR
- GR value (Neratinib/HKI272 [6]; 1 µM): 0.476 GR
- GR value (Neratinib/HKI272 [6]; 3.162 µM): 0.267 GR
- GR value (THZ1 [7]; 0.0001 µM): 1.02 GR
- GR value (THZ1 [7]; 0.0003162 µM): 0.945 GR
- GR value (THZ1 [7]; 0.001 µM): 1.02 GR
- GR value (THZ1 [7]; 0.003162 µM): 0.734 GR
- GR value (THZ1 [7]; 0.01 µM): 0.855 GR
- GR value (THZ1 [7]; 0.03162 µM): -0.061 GR
- GR value (THZ1 [7]; 0.1 µM): 0.0851 GR
- GR value (THZ1 [7]; 0.3162 µM): 0.0061 GR
- GR value (THZ1 [7]; 1 µM): -0.203 GR
